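Exposure lasted 48 hours, with cells grown in 96-well plates and compounds tested at five concentrations. At the GI50, growth is halved.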 Activity calls are given as the source filed them. No stated cut-off is given here; in the data, active = GI50 up to about 1.1 µM and inactive = higher.
What was measured:
Assay in all cases: DTP human tumour cell line panel, 48 h
A549 = tested on: A549
DLD-1 = tested on: DLD-1
SK-MEL-28 = tested on: SK-MEL-28
Malme-3M = tested on: Malme-3M
COLO 205 = tested on: COLO 205
ACHN = tested on: ACHN
DMS-273 = tested on: DMS-273
LXFL 529 = tested on: LXFL 529
SN12C = tested on: SN12C
TK-10 = tested on: TK-10
786-0 = tested on: 786-0
HL-60 = tested on: HL-60
A498 = tested on: A498
HOP-62 = tested on: HOP-62
HCC 2998 = tested on: HCC 2998
IGROV-1 = tested on: IGROV-1
NCI-H522 = tested on: NCI-H522
KM12 = tested on: KM12
HCT-15 = tested on: HCT-15
SNB-78 = tested on: SNB-78
NCI-H460 = tested on: NCI-H460
UO-31 = tested on: UO-31
NCI-H23 = tested on: NCI-H23
U-251 = tested on: U-251
SF-295 = tested on: SF-295
SK-MEL-2 = tested on: SK-MEL-2
SNB-75 = tested on: SNB-75
SK-OV-3 = tested on: SK-OV-3
HT-29 = tested on: HT-29
M14 = tested on: M14
OVCAR-3 = tested on: OVCAR-3
M19-MEL = tested on: M19-MEL
SF-268 = tested on: SF-268
CAKI-1 = tested on: CAKI-1
KM-20L2 = tested on: KM-20L2
K562 = tested on: K562
SK-MEL-5 = tested on: SK-MEL-5
SF-539 = tested on: SF-539
LOX IMVI = tested on: LOX IMVI
UACC-257 = tested on: UACC-257
CCRF-CEM = tested on: CCRF-CEM
EKVX = tested on: EKVX
OVCAR-5 = tested on: OVCAR-5
SNB-19 = tested on: SNB-19
RPMI-8226 = tested on: RPMI-8226
HOP-92 = tested on: HOP-92
SW-620 = tested on: SW-620
HCT-116 = tested on: HCT-116
HOP-18 = tested on: HOP-18
DMS-114 = tested on: DMS-114
OVCAR-8 = tested on: OVCAR-8
UACC-62 = tested on: UACC-62
SR = tested on: SR

CC(C)(C)C1=CC(=C2C(=O)C(=O)c3ccccc3C2=O)C=C(C(C)(C)C)C1=O
GI50 (A549): > 100 µM (inactive)
GI50 (DLD-1): 36.6 µM (inactive)
GI50 (SK-MEL-28): > 100 µM (inactive)
GI50 (Malme-3M): 26.5 µM (inactive)
GI50 (COLO 205): 42.1 µM (inactive)
GI50 (ACHN): 83.9 µM (inactive)
GI50 (DMS-273): 59.8 µM (inactive)
GI50 (LXFL 529): 26.9 µM (inactive)
GI50 (SN12C): 72.9 µM (inactive)
GI50 (TK-10): 84.9 µM (inactive)
GI50 (786-0): 34.5 µM (inactive)
GI50 (HL-60): 29.4 µM (inactive)
GI50 (A498): < 0.01 µM (active)
GI50 (HOP-62): > 100 µM (inactive)
GI50 (HCC 2998): > 100 µM (inactive)
GI50 (IGROV-1): 24.1 µM (inactive)
GI50 (NCI-H522): 18.7 µM (inactive)
GI50 (KM12): > 100 µM (inactive)
GI50 (HCT-15): 35.5 µM
GI50 (SNB-78): > 100 µM (inactive)
GI50 (NCI-H460): 85.5 µM (inactive)
GI50 (UO-31): 43.7 µM (inactive)
GI50 (NCI-H23): 32.7 µM (inactive)
GI50 (U-251): > 100 µM (inactive)
GI50 (SF-295): > 100 µM (inactive)
GI50 (SK-MEL-2): > 100 µM (inactive)
GI50 (SNB-75): > 100 µM (inactive)
GI50 (SK-OV-3): > 100 µM (inactive)
GI50 (HT-29): > 100 µM (inactive)
GI50 (M14): 37.5 µM (inactive)
GI50 (OVCAR-3): 33 µM (inactive)
GI50 (M19-MEL): 75.3 µM (inactive)
GI50 (SF-268): > 100 µM (inactive)
GI50 (CAKI-1): 52.1 µM (inactive)
GI50 (KM-20L2): > 100 µM (inactive)
GI50 (K562): 32.1 µM (inactive)
GI50 (SK-MEL-5): 48.5 µM (inactive)
GI50 (SF-539): 82.2 µM (inactive)
GI50 (LOX IMVI): 37.1 µM (inactive)
GI50 (UACC-257): 29.4 µM (inactive)
GI50 (CCRF-CEM): 36.5 µM (inactive)
GI50 (EKVX): 35.5 µM (inactive)
GI50 (OVCAR-5): > 100 µM (inactive)
GI50 (SNB-19): > 100 µM (inactive)
GI50 (RPMI-8226): 23.8 µM (inactive)
GI50 (HOP-92): 28.8 µM (inactive)
GI50 (SW-620): 36 µM (inactive)
GI50 (HCT-116): 19.2 µM (inactive)
GI50 (HOP-18): 36.2 µM (inactive)
GI50 (DMS-114): 31.3 µM (inactive)
GI50 (OVCAR-8): 51.3 µM (inactive)
GI50 (UACC-62): 32.7 µM (inactive)

CCOC(=O)C(OCC1CC=CCC1)Sc1ccccc1 (stereo not given)
GI50 (A549): > 100 µM (inactive)
GI50 (DLD-1): > 100 µM (inactive)
GI50 (SK-MEL-28): > 100 µM (inactive)
GI50 (Malme-3M): > 100 µM (inactive)
GI50 (COLO 205): > 100 µM (inactive)
GI50 (SR): 1.77 µM (inactive)
GI50 (ACHN): > 100 µM (inactive)
GI50 (DMS-273): > 100 µM (inactive)
GI50 (LXFL 529): > 100 µM (inactive)
GI50 (SN12C): > 100 µM (inactive)
GI50 (TK-10): > 100 µM (inactive)
GI50 (786-0): > 100 µM (inactive)
GI50 (HL-60): > 100 µM (inactive)
GI50 (A498): > 100 µM (inactive)
GI50 (HOP-62): > 100 µM (inactive)
GI50 (HCC 2998): > 100 µM (inactive)
GI50 (IGROV-1): > 100 µM (inactive)
GI50 (NCI-H522): > 100 µM (inactive)
GI50 (KM12): > 100 µM (inactive)
GI50 (HCT-15): > 100 µM
GI50 (SNB-78): > 100 µM (inactive)
GI50 (NCI-H460): > 100 µM (inactive)
GI50 (UO-31): > 100 µM (inactive)
GI50 (NCI-H23): > 100 µM (inactive)
GI50 (U-251): > 100 µM (inactive)
GI50 (SF-295): > 100 µM (inactive)
GI50 (SK-MEL-2): > 100 µM (inactive)
GI50 (SNB-75): > 100 µM (inactive)
GI50 (SK-OV-3): > 100 µM (inactive)
GI50 (HT-29): > 100 µM (inactive)
GI50 (M14): > 100 µM (inactive)
GI50 (OVCAR-3): > 100 µM (inactive)
GI50 (M19-MEL): > 100 µM (inactive)
GI50 (SF-268): > 100 µM (inactive)
GI50 (CAKI-1): > 100 µM (inactive)
GI50 (KM-20L2): > 100 µM (inactive)
GI50 (K562): > 100 µM (inactive)
GI50 (SK-MEL-5): > 100 µM (inactive)
GI50 (SF-539): > 100 µM (inactive)
GI50 (LOX IMVI): > 100 µM (inactive)
GI50 (UACC-257): > 100 µM (inactive)
GI50 (CCRF-CEM): > 100 µM (inactive)
GI50 (EKVX): > 100 µM (inactive)
GI50 (OVCAR-5): > 100 µM (inactive)
GI50 (SNB-19): > 100 µM (inactive)
GI50 (RPMI-8226): > 100 µM (inactive)
GI50 (HOP-92): > 100 µM (inactive)
GI50 (SW-620): > 100 µM (inactive)
GI50 (HCT-116): > 100 µM (inactive)
GI50 (HOP-18): > 100 µM (inactive)
GI50 (DMS-114): > 100 µM (inactive)
GI50 (OVCAR-8): > 100 µM (inactive)
GI50 (UACC-62): > 100 µM (inactive)
